Assay results published in the NIST ThermoML archive (doi:10.1016/j.jct.2011.05.003).
± gives the expanded uncertainty stated by the source.

Conditions: 101.33 kPa, Liquid; for speed of sound: Sing-around technique in a fixed-path interferometer; for mass density: Vibrating tube method

speed of sound (293.15 K) [m/s] | mass density (293.15 K) [kg/m3] | speed of sound (298.15 K) [m/s] | mass density (298.15 K) [kg/m3] | speed of sound (303.15 K) [m/s] | mass density (303.15 K) [kg/m3] | Structure (SMILES)
1281.9 ± 1.2 | 815.433 ± 0.24 | 1262.5 ± 1.2 | 811.139 ± 0.24 | 1244.1 ± 1.2 | 806.827 ± 0.24 | CCCCCC(C)=O [2-heptanone]
1261.2 ± 0.83 | 759.529 ± 0.16 | 1241.4 ± 0.82 | 755.577 ± 0.16 | 1222.2 ± 0.82 | 751.407 ± 0.16 | CCCCNCCCC [dibutylamine]
1209.4 ± 1.2 | 738.259 ± 0.25 | 1188 ± 1.2 | 733.81 ± 0.25 | 1167.6 ± 1.2 | – | CCCNCCC [dipropylamine]
1132.5 ± 0.8 | 727.333 ± 0.17 | 1110.9 ± 0.8 | 722.729 ± 0.17 | 1090.7 ± 0.78 | 718.092 ± 0.17 | CCN(CC)CC [triethylamine]
